Key:
Format in all cases: cell-based
[1] = molecular target: T1, human TASK-1 (Homo sapiens (Human), UniProt O14649); test: Two-electrode voltage clamp analysis of human TASK-1 channels in Xenopus laevis oocytes; details: oocytes, voltage clamp, Table 1B; for IC50: comparative compounds
Procedure: (§1) B-1. In Vitro Electrophysiological Analysis of the Human TASK-1 and TASK-3 Channels Via Two-Electrode Voltage Clamp Technique in Xenopus laevis Oocytes
(§2) Xenopus laevis oocytes were selected as described elsewhere in an exemplary manner [Decher et al., FEBS Lett. 492, 84-89 (2001)]. Subsequently, the oocytes were injected with 0.5-5 ng of a cRNA solution coding for TASK-1 or TASK-3. For the electrophysiological analysis of the channel proteins expressed in the oocytes, the two-electrode voltage clamp technique [Stühmer, Methods Enzymol. 207, 319-339 (1992)] was used. The measurements were carried out as described [Decher et al., FEBS Lett. 492, 84-89 (2001)] at room temperature (21-22° C.) using a Turbo TEC 10CD amplifier (NPI), recorded at 2 kHz and filtered with 0.4 kHz. Substance administration was performed using a gravitation-driven perfusion system. Here, the oocyte is located in a measuring chamber and exposed to the solvent stream of 10 ml/min. The level in the measuring chamber is monitored and regulated by sucking off the solution using a peristaltic pump.

[2] = molecular target: T2, human TASK-3 (Homo sapiens (Human), UniProt Q9NPC2); test: Two-electrode voltage clamp analysis of human TASK-3 channels in Xenopus laevis oocytes; details: oocytes, voltage clamp, Table 1B; for IC50: comparative compounds
Procedure: as §1, §2

[3] = molecular target: T1, human TASK-1; test: Inhibition of recombinant TASK-1 in stably transfected CHO cells (voltage-sensitive dye, FLIPR); details: depolarization induced by 40 mM potassium chloride, Table 2A
Procedure: (§3) B-2. Inhibition of Recombinant TASK-1 and TASK-3 In Vitro
(§4) The investigations on the inhibition of the recombinant TASK-1 and TASK-3 channels were carried out using stably transfected CHO cells. Here, the compounds according to the invention were tested with administration of 40 mM of potassium chloride in the presence of a voltage-sensitive dye using the method described in detail in the following references [Whiteaker et al., Validation of FLIPR membrane potential dye for high-throughput screening of potassium channel modulators, J. Biomol. Screen. 6 (5), 305-312 (2001); Molecular Devices FLIPR Application Note: Measuring membrane potential using the FLIPR® membrane potential assay kit on Fluorometric Imaging Plate Reader (FLIPR®) systems, http://www.moleculardevices.com/reagents-supplies/assay-kits/ion-channels/flipr-membrane-potential-assay-kits]. The activity of the test substances was determined as their ability to inhibit a depolarization induced in the recombinant cells by 40 mM potassium chloride. The concentration which can block half of this depolarization is referred to as IC50.

[4] = molecular target: T2, human TASK-3; test: Inhibition of recombinant TASK-3 in stably transfected CHO cells (voltage-sensitive dye, FLIPR); details: depolarization induced by 40 mM potassium chloride, Table 2A
Procedure: as §3, §4

T2 sequence (Q9NPC2 whole entry): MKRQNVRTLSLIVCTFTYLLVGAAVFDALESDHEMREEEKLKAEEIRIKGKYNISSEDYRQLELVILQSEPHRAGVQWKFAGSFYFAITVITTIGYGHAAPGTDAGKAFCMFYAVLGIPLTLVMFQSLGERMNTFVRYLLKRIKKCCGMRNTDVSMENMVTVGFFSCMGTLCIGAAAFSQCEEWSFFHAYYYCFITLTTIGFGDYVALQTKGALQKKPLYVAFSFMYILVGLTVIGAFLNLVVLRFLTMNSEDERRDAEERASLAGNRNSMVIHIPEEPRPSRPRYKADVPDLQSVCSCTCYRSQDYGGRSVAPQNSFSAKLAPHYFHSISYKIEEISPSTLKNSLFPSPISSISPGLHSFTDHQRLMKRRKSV
T1 sequence (O14649 whole entry): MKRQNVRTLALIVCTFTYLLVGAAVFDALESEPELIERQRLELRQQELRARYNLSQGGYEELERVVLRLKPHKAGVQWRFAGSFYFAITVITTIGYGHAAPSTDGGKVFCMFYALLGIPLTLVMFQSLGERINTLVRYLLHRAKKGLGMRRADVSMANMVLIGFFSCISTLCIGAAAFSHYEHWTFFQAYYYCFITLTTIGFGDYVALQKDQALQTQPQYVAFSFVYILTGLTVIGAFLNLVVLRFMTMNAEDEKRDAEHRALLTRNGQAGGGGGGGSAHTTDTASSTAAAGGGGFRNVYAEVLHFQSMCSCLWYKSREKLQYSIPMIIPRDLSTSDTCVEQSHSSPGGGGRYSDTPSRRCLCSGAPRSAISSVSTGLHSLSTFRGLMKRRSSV

SMILES	IC50 [3]	IC50 [4]	also measured
O=C(c1cccc(F)c1)N1CCN(Cc2c(-c3ccc(Cl)cc3)nc3ccc(C4CC4)cn23)CC1 [drawing 123]			inhibition at 1 µM [1]: 30 ± 3.3%; inhibition at 10 µM [1]: 59.9 ± 1.7%; IC50 [1]: > 1 µM; inhibition at 1 µM [2]: 29.7 ± 2.6%; inhibition at 10 µM [2]: 56.1 ± 4.6%; IC50 [2]: > 1 µM
O=C(c1ccccc1Cl)N1CCN(Cc2c(-c3ccc(Cl)cc3)nc3ccc(-c4ccccc4)cn23)CC1 [drawing 122]			inhibition at 1 µM [1]: 6.3 ± 1.4%; inhibition at 10 µM [1]: 16.9 ± 3.2%; IC50 [1]: > 30 µM; inhibition at 1 µM [2]: 9.3 ± 3.4%; inhibition at 10 µM [2]: 19.4 ± 4.6%; IC50 [2]: > 30 µM
O=C(c1ccncc1)N1CCN(Cc2c(-c3ccc(Cl)cc3)nc3ccc(C4CC4)cn23)CC1 [drawing 124]			inhibition at 1 µM [1]: 47.2 ± 1.5%; inhibition at 10 µM [1]: 49.9 ± 3.3%; IC50 [1]: > 1 µM; inhibition at 1 µM [2]: 12.1 ± 1.8%; inhibition at 10 µM [2]: 56.1 ± 2.3%; IC50 [2]: > 1 µM
O=C(c1cnccn1)N1CCN(Cc2c(-c3ccc(Cl)cc3)nc3ccc(C4CC4)cn23)CC1 [drawing 126]			inhibition at 1 µM [1]: 27.7 ± 4.5%; inhibition at 10 µM [1]: 55.2 ± 1.7%; IC50 [1]: > 1 µM; inhibition at 1 µM [2]: 8.1 ± 2.6%; inhibition at 10 µM [2]: 48.2 ± 4.3%; IC50 [2]: > 10 µM
COc1ccccc1C(=O)N1CCN(Cc2c(-c3ccc(Cl)cc3)nc3ccccn23)CC1 [Example 20]	0.305 µM	0.052 µM	
Cc1ccccc1C(=O)N1CCN(Cc2c(-c3ccc(Cl)cc3)nc3ccccn23)CC1 [Example 22]	0.387 µM	0.14 µM	
COc1ccc(Br)c(C(=O)N2CCN(Cc3c(-c4ccc(Cl)cc4)nc4ccccn34)CC2)n1 [Example 42]	0.31 µM	0.013 µM	
O=C(C1CCCC1)N1CCN(Cc2c(-c3ccc(F)cc3)nc3ccccn23)CC1 [Example 48]	0.551 µM	0.83 µM	
O=C(c1cccc(Cl)c1)N1CCN(Cc2c(-c3ccc(Cl)cc3)nc3ccccn23)CC1 [Example 36]	0.52 µM	0.19 µM	
CCOc1cccc(C(=O)N2CCN(Cc3c(-c4ccc(Cl)cc4)nc4ccccn34)CC2)n1 [Example 45]	2 µM	0.063 µM	
COc1ccccc1C(=O)N1CCN(Cc2c(-c3ccc(F)cc3)nc3ccccn23)CC1 [Example 52]	1.16 µM	0.56 µM	
Cc1ccccc1C(=O)N1CCN(Cc2c(-c3ccc(Br)cc3)nc3ccccn23)CC1 [Example 14]	0.481 µM	0.31 µM	
O=C(c1ccccc1Cl)N1CCN(Cc2c(-c3ccc(Cl)cc3)nc3ccccn23)CC1 [Example 37]	0.37 µM	0.06 µM	
N#Cc1ccc(-c2nc3ccccn3c2CN2CCN(C(=O)C3CCCCC3)CC2)cc1 [Example 63]	1.3 µM	1.6 µM	
COc1ccccc1C(=O)N1CCN(Cc2c(-c3ccc(Br)cc3)nc3ccccn23)CC1 [Example 12]	0.409 µM	0.071 µM	
COc1ccc(C)c(C(=O)N2CCN(Cc3c(-c4ccc(C#N)cc4)nc4ccccn34)CC2)n1 [Example 71]	0.23 µM	0.016 µM	
CCOc1ccccc1C(=O)N1CCN(Cc2c(-c3ccc(Cl)cc3)nc3ccccn23)CC1 [Example 28]	0.51 µM	0.014 µM	
O=C(c1cccc(OC(F)(F)F)c1)N1CCN(Cc2c(-c3ccc(Cl)cc3)nc3ccccn23)CC1 [Example 24]	1.14 µM	0.81 µM	
O=C(c1ccccc1F)N1CCN(Cc2c(-c3ccc(C4CC4)cc3)nc3ccccn23)CC1 [Example 69, (4-{[2-(4-Cyclopropylphenyl)imidazo[1,2-a]pyridin-3-yl]methyl}piperazin-1-yl)(2-fluorophenyl)methanone]	0.066 µM	0.011 µM	
COc1cccc(C(=O)N2CCN(Cc3c(-c4ccc(C)cc4)nc4ccccn34)CC2)n1 [Example 59]	0.8 µM	0.43 µM	
O=C(c1cc(F)ccc1Cl)N1CCN(Cc2c(-c3ccc(Cl)cc3)nc3ccccn23)CC1 [Example 16]	0.304 µM	0.11 µM	

Source: US10759794B2, “2-phenyl-3-(piperazinomethyl)imidazo[1,2-A]pyridine derivatives as blockers of task-1 and task-2 channels, for the treatment of sleep-related breathing disorders” (BAYER PHARMA AKTIENGESELLSCHAFT, priority 2015, dated 2020)
